Target: T1, PPARδ (Homo sapiens, UniProt Q03181)
T1 construct: expressed in transfected cells; host or cells: HepG2
T1 sequence (Q03181 211-439 limits assumed): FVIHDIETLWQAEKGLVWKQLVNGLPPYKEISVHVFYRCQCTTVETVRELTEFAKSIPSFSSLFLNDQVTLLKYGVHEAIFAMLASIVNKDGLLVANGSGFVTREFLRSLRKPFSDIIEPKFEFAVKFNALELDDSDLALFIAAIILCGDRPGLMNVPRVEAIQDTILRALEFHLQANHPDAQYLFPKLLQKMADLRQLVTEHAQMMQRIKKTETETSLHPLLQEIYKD
Assay: Nuclear receptor reporter gene transient transfection (pBIND-hPPARs-LBD) in HepG2 cells, PPARδ
Assay type: cell-based
Settings: FIG. 2, result in words
Description: HepG2 cells in logarithmic growth phase were digested, seeded into the white/clear 96-well plate at a density of 5×10^4 cells/well/100 μL until the cells grew to about 90% confluence and in good condition. 0.5 μL liposome (Lipofectamine® 2000) diluted with blank medium to 25 μL per well and incubated at room temperature for 5 min. The corresponding plasmids DNA (nuclear receptor plasmid:Gal4=1:10) were diluted in blank DMEM medium to 25 μL/well (mixing of two plasmids), then mixed evenly with the diluted liposome, and incubated for 20 min at 37° C. The DNA-liposome complex (50 μL per well) was added with the DMEM complete medium (100 μL per well) and mixed thoroughly to obtain a DNA-liposome complex cell culture. The cell medium was discarded, and replaced with the DNA-liposome complex cell culture (150 μL/well) (37° C., 5% CO2). After 6 h, the DNA-liposome complex cell culture medium was discarded, and 200 μL serum-free DMEM medium containing the compound at an appropriate concentration was added to each test well, and cultured for 18-24 h. The cell Luciferase activity was measured by the method as described in the Luciferase Assay System.

SMILES: c1ccc2c(c1)CN1CCc3c([nH]c4ccccc34)C1=N2 [TR3, 5,7,8,13-tetrahydroindolo[2′,3′:3,4]pyrido[2,1-b]quinazoline]
- activation of PPARδ: simultaneously activated PPARα/γ/δ and LXRα/β to a certain extent
